US6958215B1, “Methods and compositions for inhibition of RNA splicing” (priority 1999, dated 2005)
[np] = N3'→P5' phosphoramidate internucleoside linkage; d = 2'-deoxy (DNA); r = 2'-OH (RNA)

How the values were obtained:
[1] = test system: P. carinii rRNA precursor (P-h) containing a Group I intron; assay: Inhibition of self-splicing, internally radiolabeled P-h precursor, gel assay; assay type: biochemical, Pneumocystis carinii; conditions: 2 mM Mg2+, up to 30 μM oligonucleotide, 1 mM pG
[2] = test system: P. carinii rRNA precursor (P-h) containing a Group I intron; assay: Oligonucleotide concentration dependence of cis- and trans-splicing, 3′ end radiolabeled P-h precursor; assay type: biochemical, Pneumocystis carinii; conditions: up to 30 μM oligonucleotide, 4 mM Mg2+
[3] = test system: P. carinii rRNA precursor (P-h) containing a Group I intron; assay: Fate of 5′ end radiolabeled hexamer with unlabeled P-h precursor (trans-splicing); assay type: biochemical, Pneumocystis carinii; conditions: 0, 2, 3, or 15 mM Mg2+
Description: The fate of the hexamers, (dA)n(dT)n(dG)n(dA)n(dC)n(rU) [Seq. ID No:1] and (dC)n(dA)n(dG)n(dT)n(dA)n(rU) [Seq. ID No:5], was also analyzed using radiolabeled hexamer and unlabeled precursor in the presence and absence of pG colactor. Approximately 300 nM unlabeled P-h precursor was reannealed at 55° C. in 3 μL of the appropriate buffer for 5 min and slow cooled to 37° C. A 3 μL solution of […] 5′ end radiolabeled hexamer in the same buffer at 37° C. was added and the reaction was allowed to proceed for 1 h. The reaction was quenched by the addition of 6 μL of 2× stop buffer and the reactants and products were separated on a 10% polyacrylamide, 8 M urea gel. The gel was dried under vacuum and the bands quantified with a Molecular Dynamics phosphorimager.

C-10/1x ribozyme = assay: Binding to C-10/1x ribozyme, competitive band-shift native electrophoresis; design: species or system Candida albicans; conditions: H15Mg buffer; for Binding to C-10/1x ΔG*37,C-10/1x: calculated from Kd, T = 310 K; for Tertiary Stability BETI (binding enhanced by tertiary interactions): calculated using Kd values; for Tertiary Stability ααG°37,BETI: difference in ΔG°37 for binding to C-10/1x and r(GGAGGC)
Description: C-10/1x is a Candida albicans rRNA Group I ribozyme. Dissociation constants for 5′ exon oligonucleotide mimics which bind to the C-10/1x ribozyme were measured by competitive band-shift native electrophoresis using methods described in Testa et al., Biochemistry 37:9379-9385 (1998). The results for a variety of oligonucleotides complementary or containing a one base mismatch to the C-10/1x 5′ exon guide sequence are shown in Table 2.

r(GGAGGC) = assay: Base-pairing to r(GGAGGC), thermodynamic melts; assay type: binding; conditions: H15Mg buffer; for Kd: calculated from ΔG°37, read-out: Binding to r(GGAGGC) Kd,B.P.

| Substance | increase in the 5′ exon-intron product [1] | formation of trans-spliced product [2] | reactivity of 5′ radiolabeled hexamer with unlabeled precursor [3] | Kd (C-10/1x ribozyme) | Binding to C-10/1x ΔG*37,C-10/1x (C-10/1x ribozyme) | Tertiary Stability BETI (binding enhanced by tertiary interactions) (C-10/1x ribozyme) | Tertiary Stability ααG°37,BETI (C-10/1x ribozyme) | Binding to r(GGAGGC) ΔG°37,B.P. (r(GGAGGC)) | Kd (r(GGAGGC)) |
| --- | --- | --- | --- | --- | --- | --- | --- | --- | --- |
| (dC)n(dA)n(dG)n(dT)n(dA)n(rU) (CAGTAU; sugars from the 5' end d5 r1, all [np], methylation of C not given here) [reference compound] | does not occur | not formed | not reactive | – | – | – | – | – | – |
| r(GACUCU) [reference compound] | – | – | – | 0.0069 µM | -11.6 kcal/mol | 4800000 | -9.5 kcal/mol | -2.1 kcal/mol | 600 µM |
| r(GCCUCU) [reference compound] | – | – | – | 0.0007 µM | -13.0 kcal/mol | 1500 | -4.5 kcal/mol | -8.5 kcal/mol | 100 µM |
